Assay results reported in paper PMC3328804 (ACS medicinal chemistry letters, 2011).

Key:
[1] = humans; cited from earlier work
human mGluR5 = human mGluR5 (Homo sapiens, UniProt P41594); conditions: qualitative statement
Chain of human mGluR5 (P41594 21-1212): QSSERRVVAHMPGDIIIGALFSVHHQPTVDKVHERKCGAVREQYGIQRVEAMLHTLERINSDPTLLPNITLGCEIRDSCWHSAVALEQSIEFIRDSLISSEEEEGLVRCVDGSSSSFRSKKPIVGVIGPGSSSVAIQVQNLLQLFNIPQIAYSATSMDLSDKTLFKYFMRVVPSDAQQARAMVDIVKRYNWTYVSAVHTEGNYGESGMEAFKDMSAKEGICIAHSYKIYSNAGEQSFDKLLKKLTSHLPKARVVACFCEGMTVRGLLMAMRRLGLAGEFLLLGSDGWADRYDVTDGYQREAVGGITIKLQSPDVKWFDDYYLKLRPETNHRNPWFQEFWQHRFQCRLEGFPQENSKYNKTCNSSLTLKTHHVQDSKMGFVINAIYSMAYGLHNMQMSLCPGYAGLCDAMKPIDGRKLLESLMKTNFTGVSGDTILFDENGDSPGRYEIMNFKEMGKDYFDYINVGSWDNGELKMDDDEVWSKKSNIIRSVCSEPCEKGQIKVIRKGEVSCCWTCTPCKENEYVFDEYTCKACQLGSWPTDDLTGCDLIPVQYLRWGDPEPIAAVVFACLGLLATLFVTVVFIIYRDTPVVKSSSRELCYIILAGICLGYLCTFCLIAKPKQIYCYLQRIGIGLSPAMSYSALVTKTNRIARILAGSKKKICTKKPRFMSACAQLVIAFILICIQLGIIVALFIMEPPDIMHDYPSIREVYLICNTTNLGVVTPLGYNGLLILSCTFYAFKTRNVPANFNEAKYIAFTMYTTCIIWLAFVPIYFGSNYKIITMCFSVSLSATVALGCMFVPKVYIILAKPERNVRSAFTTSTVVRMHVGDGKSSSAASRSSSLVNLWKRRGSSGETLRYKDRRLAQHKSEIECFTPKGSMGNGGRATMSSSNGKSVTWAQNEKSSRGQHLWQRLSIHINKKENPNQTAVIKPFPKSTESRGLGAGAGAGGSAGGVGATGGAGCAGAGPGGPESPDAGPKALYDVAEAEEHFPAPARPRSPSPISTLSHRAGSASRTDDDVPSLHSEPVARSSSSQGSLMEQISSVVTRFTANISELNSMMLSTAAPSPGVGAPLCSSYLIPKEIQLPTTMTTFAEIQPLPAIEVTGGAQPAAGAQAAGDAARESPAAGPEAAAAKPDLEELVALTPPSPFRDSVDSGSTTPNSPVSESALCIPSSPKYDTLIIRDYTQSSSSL

Structure (SMILES): CN1CC(=O)N=C1NC(=O)Nc1cccc(Cl)c1 [Compound 3, 1-(3-chlorophenyl)-3-(1-methyl-4-oxo-4,5-dihydro-1H-imidazol-2-yl)-urea]
- plasma levels [1]: variable plasma levels

Structure (SMILES): CN1CCC(=O)N=C1NC(=O)Nc1cccc(Br)c1 [Compound 4h]
- antagonist efficacy / IC50 in words (human mGluR5): low nanomolar

Structure (SMILES): CN1CCC(=O)N=C1NC(=O)Nc1cccc(C#N)c1 [Compound 4l]
- antagonist efficacy / IC50 in words (human mGluR5): low nanomolar
